The subject of the experiment is MV-4-11 cells. Description: Gene expression microarray analysis (Affymetrix PrimeView) and GSEA. The class given is cell-based, human. Details: RFU PODN (11730768_x_at) / Fold change /veh PODN (11730768_x_at) / RFU LINC00158 (11744669_a_at) / Fold change /veh LINC00158 (11744669_a_at) / RFU DUSP10 (11751237_a_at) / Fold change /veh DUSP10 (11751237_a_at) / RFU ID3 (11757404_x_at) / Fold change /veh ID3 (11757404_x_at) / RFU PLEKHG5 (11737974_s_at) / Fold change /veh PLEKHG5 (11737974_s_at) / RFU LRRC4B (11730491_at) / Fold change /veh LRRC4B (11730491_at) / RFU GIMAP4 (11747438_a_at) / Fold change /veh GIMAP4 (11747438_a_at) / RFU KRT8 (11758183_x_at) / Fold change /veh KRT8 (11758183_x_at) / RFU CNN1 (11734310_a_at) / Fold change /veh CNN1 (11734310_a_at) / RFU VPS37D (11726825_at) / Fold change /veh VPS37D (11726825_at) / RFU C10orf10 (11716522_x_at) / Fold change /veh C10orf10 (11716522_x_at) / RFU KIR2DL2 /// KIR2DL4 /// KIR2DL5A /// KIR2DL5B /// KIR2DS1 /// KIR2DS2 /// KIR2DS3 /// KIR2DS4 /// KIR3DL3 /// KIR3DL3 /// KIR3DS1 (11738374_at) / Fold change /veh KIR2DL2 /// KIR2DL4 /// KIR2DL5A /// KIR2DL5B /// KIR2DS1 /// KIR2DS2 /// KIR2DS3 /// KIR2DS4 /// KIR3DL3 /// KIR3DL3 /// KIR3DS1 (11738374_at) / RFU C1QL1 (11718748_at) / Fold change /veh C1QL1 (11718748_at) / RFU TMPRSS4 (11747572_a_at) / Fold change /veh TMPRSS4 (11747572_a_at) / RFU HAMP (11756126_x_at) / Fold change /veh HAMP (11756126_x_at) / RFU RNFT2 (11725882_a_at) / Fold change /veh RNFT2 (11725882_a_at) / RFU NR4A2 (11747474_a_at) / Fold change /veh NR4A2 (11747474_a_at) / RFU ABCC12 (11746883_a_at) / Fold change /veh ABCC12 (11746883_a_at) / RFU TMEM136 (11760407_x_at) / Fold change /veh TMEM136 (11760407_x_at) / RFU CLDN22 /// WWC2 (11732394_at) / Fold change /veh CLDN22 /// WWC2 (11732394_at) / RFU HLA-DPB1 (11760878_x_at) / Fold change /veh HLA-DPB1 (11760878_x_at) / RFU SPINT1 (11716480_a_at) / Fold change /veh SPINT1 (11716480_a_at) / RFU GAP43 (11754022_s_at) / Fold change /veh GAP43 (11754022_s_at) / RFU A4GNT (11735810_at) / Fold change /veh A4GNT (11735810_at) / RFU PRB3 (11715151_x_at) / Fold change /veh PRB3 (11715151_x_at) / RFU TUBB4B (11761932_at) / Fold change /veh TUBB4B (11761932_at) / RFU CAPN14 (11732068_a_at) / Fold change /veh CAPN14 (11732068_a_at) / RFU TMCC2 (11721928_a_at) / Fold change /veh TMCC2 (11721928_a_at) / RFU IRGQ (11745062_a_at) / Fold change /veh IRGQ (11745062_a_at) / RFU FAM174B (11720279_a_at) / Fold change /veh FAM174B (11720279_a_at) / RFU TMPRSS4 (11748680_a_at) / Fold change /veh TMPRSS4 (11748680_a_at) / RFU FAM212B (11763350_a_at) / Fold change /veh FAM212B (11763350_a_at) / RFU PLEKHG5 (11743358_a_at) / Fold change /veh PLEKHG5 (11743358_a_at) / RFU ZSCAN30 (11745921_a_at) / Fold change /veh ZSCAN30 (11745921_a_at) / RFU CMKLR1 (11741424_a_at) / Fold change /veh CMKLR1 (11741424_a_at) / RFU LOC101060620 /// MAPK8IP1 (11723275_at) / Fold change /veh LOC101060620 /// MAPK8IP1 (11723275_at) / RFU SPTSSB (11747773_x_at) / Fold change /veh SPTSSB (11747773_x_at) / RFU PRSS12 (11739890_at) / Fold change /veh PRSS12 (11739890_at) / RFU BIN1 (11741810_x_at) / Fold change /veh BIN1 (11741810_x_at) / RFU WNT11 (11732464_a_at) / Fold change /veh WNT11 (11732464_a_at) / RFU C10orf10 (11716521_a_at) / Fold change /veh C10orf10 (11716521_a_at) / RFU C5orf56 (11738089_at) / Fold change /veh C5orf56 (11738089_at) / RFU CYB561 (11721691_x_at) / Fold change /veh CYB561 (11721691_x_at) / RFU ANKRD19P (11752326_a_at) / Fold change /veh ANKRD19P (11752326_a_at) / RFU OR2T12 /// OR2T33 /// OR2T8 (11738714_s_at) / Fold change /veh OR2T12 /// OR2T33 /// OR2T8 (11738714_s_at) / RFU VCAN (11748164_a_at) / Fold change /veh VCAN (11748164_a_at) / RFU JSRP1 (11732532_at) / Fold change /veh JSRP1 (11732532_at) / RFU KRTAP10-11 (11738290_x_at) / Fold change /veh KRTAP10-11 (11738290_x_at) / RFU MYO3A (11730013_a_at) / Fold change /veh MYO3A (11730013_a_at) / RFU EBF3 (11725865_a_at) / Fold change /veh EBF3 (11725865_a_at) / RFU CAMK2N1 (11719241_x_at) / Fold change /veh CAMK2N1 (11719241_x_at) / RFU C5orf56 (11738088_a_at) / Fold change /veh C5orf56 (11738088_a_at) / RFU OLFML3 (11715873_a_at) / Fold change /veh OLFML3 (11715873_a_at) / RFU LOC100653217 /// NTM (11731650_a_at) / Fold change /veh LOC100653217 /// NTM (11731650_a_at) / RFU MAPK11 (11762145_a_at) / Fold change /veh MAPK11 (11762145_a_at) / RFU FIZ1 (11724087_x_at) / Fold change /veh FIZ1 (11724087_x_at) / RFU OASL (11726364_x_at) / Fold change /veh OASL (11726364_x_at) / RFU SOX15 (11748057_x_at) / Fold change /veh SOX15 (11748057_x_at) / RFU CD79A (11719716_a_at) / Fold change /veh CD79A (11719716_a_at) / RFU HIST1H1D (11736915_at) / Fold change /veh HIST1H1D (11736915_at) / RFU CASKIN2 (11723855_a_at) / Fold change /veh CASKIN2 (11723855_a_at) / RFU LOC730098 (11760151_x_at) / Fold change /veh LOC730098 (11760151_x_at) / RFU OR4N2 (11742367_at) / Fold change /veh OR4N2 (11742367_at) / RFU PRRT2 (11749266_a_at) / Fold change /veh PRRT2 (11749266_a_at) / RFU SNX32 (11753110_a_at) / Fold change /veh SNX32 (11753110_a_at) / RFU CDHR5 (11726645_a_at) / Fold change /veh CDHR5 (11726645_a_at) / RFU RCAN1 (11760418_a_at) / Fold change /veh RCAN1 (11760418_a_at) / RFU FAM167A (11723789_a_at) / Fold change /veh FAM167A (11723789_a_at) / RFU FAM26E (11764081_at) / Fold change /veh FAM26E (11764081_at) / RFU ISYNA1 (11749810_s_at) / Fold change /veh ISYNA1 (11749810_s_at) / RFU ACY1 (11761880_at) / Fold change /veh ACY1 (11761880_at) / RFU 11764098_at / Fold change /veh 11764098_at / RFU SAMD14 (11745864_x_at) / Fold change /veh SAMD14 (11745864_x_at) / RFU NPB (11741838_a_at) / Fold change /veh NPB (11741838_a_at) / RFU TMPRSS6 (11731388_a_at) / Fold change /veh TMPRSS6 (11731388_a_at) / RFU KRTAP10-2 (11738614_at) / Fold change /veh KRTAP10-2 (11738614_at) / RFU ARHGAP8 /// PRR5-ARHGAP8 (11727945_x_at) / Fold change /veh ARHGAP8 /// PRR5-ARHGAP8 (11727945_x_at) / RFU KRTAP5-7 /// NADSYN1 (11734609_at) / Fold change /veh KRTAP5-7 /// NADSYN1 (11734609_at) / RFU RASL12 (11751679_a_at) / Fold change /veh RASL12 (11751679_a_at) / RFU CDKN2B (11736163_a_at) / Fold change /veh CDKN2B (11736163_a_at) / RFU PRF1 (11729649_at) / Fold change /veh PRF1 (11729649_at) / RFU, ZNF638 /// ZNF638-IT1 / Fold change vs veh, ZNF638 /// ZNF638-IT1 / RFU, PANK3 / Fold change vs veh, PANK3 / RFU, SH3YL1 / Fold change vs veh, SH3YL1 / RFU, ZEB2 / Fold change vs veh, ZEB2 / RFU, NRIP1 / Fold change vs veh, NRIP1 / RFU, PTTG1IP / Fold change vs veh, PTTG1IP / RFU, CAPN2 / Fold change vs veh, CAPN2 / RFU, MED14 / Fold change vs veh, MED14 / RFU, SNORA58 / Fold change vs veh, SNORA58 / RFU, C1orf63 / Fold change vs veh, C1orf63 / RFU, LRRFIP1 / Fold change vs veh, LRRFIP1 / RFU, NDUFAF7 / Fold change vs veh, NDUFAF7 / RFU, SLC12A2 / Fold change vs veh, SLC12A2 / RFU, IBTK / Fold change vs veh, IBTK / RFU, ESF1 / Fold change vs veh, ESF1 / Fold change vs veh, TMEM50B / RFU, TAOK1 / Fold change vs veh, TAOK1 / RFU, ACBD3 / Fold change vs veh, ACBD3 / RFU, TMA16 / Fold change vs veh, TMA16 / RFU, RWDD3 / Fold change vs veh, RWDD3 / RFU, BCAT1 / Fold change vs veh, BCAT1 / RFU, EDEM3 / Fold change vs veh, EDEM3 / RFU, TMEM33 / Fold change vs veh, TMEM33 / RFU, WDR75 / Fold change vs veh, WDR75 / RFU, AHCTF1 / Fold change vs veh, AHCTF1 / RFU, TFRC / Fold change vs veh, TFRC / RFU, ZDHHC17 / Fold change vs veh, ZDHHC17 / RFU, NOM1 / Fold change vs veh, NOM1 / RFU, ARL8B / Fold change vs veh, ARL8B / RFU, ZBTB11 / Fold change vs veh, ZBTB11 / RFU, TAMM41 / Fold change vs veh, TAMM41 / RFU, KIAA1704 /// LOC100996395 / Fold change vs veh, KIAA1704 /// LOC100996395 / RFU, ING1 / Fold change vs veh, ING1 / RFU, TRMT61B / Fold change vs veh, TRMT61B / RFU, FUBP3 / Fold change vs veh, FUBP3 / RFU, TP53 / Fold change vs veh, TP53 / RFU, TNKS2 / Fold change vs veh, TNKS2 / RFU, ZFP14 / Fold change vs veh, ZFP14 / RFU, ACTR2 / Fold change vs veh, ACTR2 / RFU, PPP3R1 / Fold change vs veh, PPP3R1 / RFU, PIK3R1 / Fold change vs veh, PIK3R1 / RFU, HNRNPA1 / Fold change vs veh, HNRNPA1 / RFU, RNF170 / Fold change vs veh, RNF170 / RFU, ZNF28 / Fold change vs veh, ZNF28 / RFU, RNGTT / Fold change vs veh, RNGTT / RFU, OGT / Fold change vs veh, OGT / RFU, BRD1 / Fold change vs veh, BRD1 / RFU, MARS / Fold change vs veh, MARS / RFU, ZNF655 / Fold change vs veh, ZNF655 / RFU, FAHD1 / Fold change vs veh, FAHD1 / RFU, BDP1 / Fold change vs veh, BDP1 / RFU, LRRCC1 / Fold change vs veh, LRRCC1 / RFU, ARID1A / Fold change vs veh, ARID1A / RFU, ZNF146 / Fold change vs veh, ZNF146 / RFU, ZNF330 / Fold change vs veh, ZNF330 / RFU, GPN3 / Fold change vs veh, GPN3 / RFU, C9orf123 / Fold change vs veh, C9orf123 / RFU, N4BP2L2 / Fold change vs veh, N4BP2L2 / RFU, ARFIP1 / Fold change vs veh, ARFIP1 / RFU, FAM179B / Fold change vs veh, FAM179B / RFU, BCL10 / Fold change vs veh, BCL10 / RFU, UHRF1BP1L / Fold change vs veh, UHRF1BP1L / RFU, BET1 / Fold change vs veh, BET1 / RFU, CNOT2 / Fold change vs veh, CNOT2 / RFU, ZNF268 / Fold change vs veh, ZNF268 / Fold change vs veh, ZNF507 / RFU, DGCR2 / Fold change vs veh, DGCR2 / RFU, WDSUB1 / Fold change vs veh, WDSUB1 / Fold change vs veh, HSP90B1 /// MIR3652 / RFU, ADSS / Fold change vs veh, ADSS / RFU, GK / Fold change vs veh, GK / RFU, ZNF148 / Fold change vs veh, ZNF148 / RFU, TAF9 / Fold change vs veh, TAF9 / RFU, SLC1A5 / Fold change vs veh, SLC1A5 / RFU, SLMO2 / Fold change vs veh, SLMO2 / RFU, ABCC4 / Fold change vs veh, ABCC4 / RFU, LOC101060439 /// RAP1B / Fold change vs veh, LOC101060439 /// RAP1B / RFU, RFX7 / Fold change vs veh, RFX7 / RFU, GTPBP10 / Fold change vs veh, GTPBP10 / RFU, CNEP1R1 / Fold change vs veh, CNEP1R1 / RFU, BIVM-ERCC5 /// ERCC5 / Fold change vs veh, BIVM-ERCC5 /// ERCC5 / RFU, ILF3 / Fold change vs veh, ILF3 / RFU 11762660_at / Fold change /veh 11762660_at / RFU VCAN (11757783_s_at) / Fold change /veh VCAN (11757783_s_at) / RFU DDX43 (11728927_at) / Fold change /veh DDX43 (11728927_at) / RFU KRT8 (11758188_x_at) / Fold change /veh KRT8 (11758188_x_at) / RFU NKD1 (11759106_at) / Fold change /veh NKD1 (11759106_at) / RFU SRD5A1 (11742802_a_at) / Fold change /veh SRD5A1 (11742802_a_at) / RFU TPSAB1 /// TPSB2 (11721975_s_at) / Fold change /veh TPSAB1 /// TPSB2 (11721975_s_at) / RFU GSTM3 (11746129_a_at) / Fold change /veh GSTM3 (11746129_a_at) / RFU IL23R (11737362_x_at) / Fold change /veh IL23R (11737362_x_at) / RFU TMEM51 (11727254_a_at) / Fold change /veh TMEM51 (11727254_a_at) / RFU PIWIL2 (11732686_x_at) / Fold change /veh PIWIL2 (11732686_x_at) / RFU ORM1 (11744905_x_at) / Fold change /veh ORM1 (11744905_x_at) / RFU CCDC152 (11743942_at) / Fold change /veh CCDC152 (11743942_at) / RFU ECM1 (11717891_a_at) / Fold change /veh ECM1 (11717891_a_at) / RFU IL23R (11748794_a_at) / Fold change /veh IL23R (11748794_a_at) / RFU TNFAIP8L3 (11732012_x_at) / Fold change /veh TNFAIP8L3 (11732012_x_at) / RFU MBOAT4 (11741988_at) / Fold change /veh MBOAT4 (11741988_at) / RFU 11764193_at / Fold change /veh 11764193_at / RFU TMEM53 (11763286_at) / Fold change /veh TMEM53 (11763286_at) / RFU MAGEB2 (11727129_at) / Fold change /veh MAGEB2 (11727129_at) / RFU TMEM200A (11744735_a_at) / Fold change /veh TMEM200A (11744735_a_at) / RFU CCDC152 (11751479_a_at) / Fold change /veh CCDC152 (11751479_a_at) / RFU FAM211A (11726209_a_at) / Fold change /veh FAM211A (11726209_a_at) / RFU RGS16 (11746705_a_at) / Fold change /veh RGS16 (11746705_a_at) / RFU VCAN (11755009_s_at) / Fold change /veh VCAN (11755009_s_at) / RFU RHOB (11743442_s_at) / Fold change /veh RHOB (11743442_s_at) / RFU RGS16 (11720943_a_at) / Fold change /veh RGS16 (11720943_a_at) / RFU RGS16 (11720944_at) / Fold change /veh RGS16 (11720944_at) / RFU, VPS4B / Fold change vs veh, VPS4B / RFU, CREB1 / Fold change vs veh, CREB1 / RFU, DNAJC13 / Fold change vs veh, DNAJC13 / RFU, GNAQ / Fold change vs veh, GNAQ / RFU, CDK5R1 / Fold change vs veh, CDK5R1 / RFU, ZRANB3 / Fold change vs veh, ZRANB3 / RFU, CUL4A / Fold change vs veh, CUL4A / RFU, CCNY / Fold change vs veh, CCNY / RFU, UFL1 / Fold change vs veh, UFL1 / RFU, COG3 / Fold change vs veh, COG3 / RFU, DIAPH2 / Fold change vs veh, DIAPH2 / RFU, SKA2 / Fold change vs veh, SKA2 / RFU, AFF3 / Fold change vs veh, AFF3 / RFU, LMF1 / Fold change vs veh, LMF1 / RFU, IPO11 / Fold change vs veh, IPO11 / RFU, DFFB / Fold change vs veh, DFFB / RFU, FOXP1 / Fold change vs veh, FOXP1 / RFU, CARD8 / Fold change vs veh, CARD8 / RFU, STRN3 / Fold change vs veh, STRN3 / RFU, ADK / Fold change vs veh, ADK / RFU, RASSF2 / Fold change vs veh, RASSF2 / RFU, WIPF1 / Fold change vs veh, WIPF1 / RFU, LARP1B / Fold change vs veh, LARP1B / RFU, RASA1 / Fold change vs veh, RASA1 / RFU, RB1 / Fold change vs veh, RB1 / RFU, PPFIA1 / Fold change vs veh, PPFIA1 / RFU, MAT2A / Fold change vs veh, MAT2A / RFU, CCT5 / Fold change vs veh, CCT5 / RFU, WDR92 / Fold change vs veh, WDR92 / RFU, CUX1 / Fold change vs veh, CUX1 / RFU, TTC7A / Fold change vs veh, TTC7A / RFU, TMEM135 / Fold change vs veh, TMEM135 / RFU, DEPTOR / Fold change vs veh, DEPTOR / RFU, CPM / Fold change vs veh, CPM / RFU, DNAJB6 / Fold change vs veh, DNAJB6 / RFU, CACNA2D3 / Fold change vs veh, CACNA2D3 / RFU, DTX4 / Fold change vs veh, DTX4 / RFU, TFCP2 / Fold change vs veh, TFCP2 / RFU, GMCL1 /// GMCL1P1 / Fold change vs veh, GMCL1 /// GMCL1P1 / RFU, AEBP2 / Fold change vs veh, AEBP2 / RFU, SNHG1 /// SNORD22 /// SNORD25 /// SNORD26 /// SNORD27 /// SNORD28 /// SNORD29 /// SNORD31 / Fold change vs veh, SNHG1 /// SNORD22 /// SNORD25 /// SNORD26 /// SNORD27 /// SNORD28 /// SNORD29 /// SNORD31 / Fold change (Aza/veh), C12orf56 (ProbeSet 11735607_a_at) / Fold change (ACY-1035/veh), C12orf56 (ProbeSet 11735607_a_at) / Fold change (Aza/veh), FGFR1OP (ProbeSet 11751329_s_at) / Fold change (ACY-1035/veh), FGFR1OP (ProbeSet 11751329_s_at) / Fold change (Aza/veh), VPS36 (ProbeSet 11739960_a_at) / Fold change (ACY-1035/veh), VPS36 (ProbeSet 11739960_a_at) / RFU SYPL1 (11715823_x_at) / Fold change /veh SYPL1 (11715823_x_at) / RFU IGFBP7 (11715501_s_at) / Fold change /veh IGFBP7 (11715501_s_at) / RFU REEP3 (11722064_at) / Fold change /veh REEP3 (11722064_at) / RFU IGLL1 (11728026_x_at) / Fold change /veh IGLL1 (11728026_x_at): dose or concentration left out as unconfirmed. To be noted: ProbeSet 11738335_x_at; LIST B.

Turning to `Nc1ccc(-c2cccs2)cc1NC(=O)c1ccc2c(c1)cc(C1CC1)n2CCN1CCOCC1` [ACY-1035], the “RFU, TP53” value turned out to be 73.59 RFU.

Values taken from article PMC5218480 (PLoS ONE, 2017).
